# Measured values taken from patent publication US20240316213A1, “ANTIBODY-PROTAMINE FUSIONS AS TARGETING COMPOUNDS OF A PROTAMINE-BASED NANOPARTICLE” (Universität Münster, priority 2021, published 2024).
# How the values were obtained:
# [1] = Cell-free vesicle/nanoparticle formation on chamber slides, microscopy; assay type: physicochemical
# From the text: Based upon these measurements, we hypothesized that the antibody-protamine/free SMCC-protamine/siRNA complexes form outside cells and independently of a cellular context. […]
# In detail, the nanostructures resemble a spheroid shape of micrometre size, formed by the three components mAB-SMCC-protamine, unconjugated SMCC-protamine and the Alexa488-labeled siRNA (FIG. 37). The structures are verified by fluorescence microscopy and laser scan confocal microscopy. It became evident that the spheroid structures are completely filled with Alexa488 signals from the siRNA compound.
# HBL-1 cells = assay: Colony formation assay, HBL-1; assay type: cell-based
# Experimental: Next, we planned functional assays for identifying the effectivity of the antibody-inhibitor-complexes. DLBCL tumor cells were seeded in methylcellulose to form anchorage-free colony growth as a substitute marker for tumorigenicity. Assays were treated with combinations of antibody-inhibitor complexes and compared with appropriate control groups.
# This colony-assay is used for quantification of anchorage-independent clonal cell growth and is a standard in vitro surrogate for tumorigenicity in vivo.
# HBL-1 DLBCL-cells = assay: NSG-HBL1 xenograft model; assay type: in vivo; settings: after treatment start, groups of 10 mice
# Experimental: A. Tumor growth and treatment regimen of the NSG-HBL1 xenograft model. After transplantation, tumors were grown to 200 mm^3, before treatment was started twice a week intraperitoneally (i.p.). […] On every treatment day, twice a week, tumor volumes were assessed by caliper measurements. […] C. Survival curves of the treatment versus control groups.
# siRNA = assay: Bandshift (electro-mobility shift) assay, siRNA binding; settings: preparation containing free SMCC-protamine
# Experimental: We analysed the siRNA binding capacity of these different conjugations by our routine bandshift assays (FIG. 40A-F).
# The principle of genetic fusion between cell-determining targeting moiety and the electrostatic siRNA binder protamine such as presented in Song et al. was evaluated by applying this strategy to in a variation to target e.g. leukemic blasts (FIG. 48). The well-known anti-CD33 receptor antibody gemtuzumab was expressed with (FIG. 51) and without a direct genetic fusion to protamine as a siRNA carrier.
# [2] = Bandshift assay, SM-1/RF binding; settings: free SMCC-protamine present; listed as Not SMCC-protamine depleted CD20-mAB-preparations
# From the text: Subsequently, we performed the same experiments for the binding between SM-1/RF and two carrier systems, rituximab (CD20)-protamine and the reliable cetuximab (EGFR)-protamine.
# [3] = Bandshift assay, ibrutinib-Cy3.5 binding; settings: free protamine-SMCC present; listed as Not protamine-SMCC depleted αCD20-mAB-preparations
"nanoparticle/vesicle formation, cell-free ([1]; listed as uncharged ibrutinib)",siRNA bound per mol of antibody carrier (siRNA),siRNA bound per mol of antibody carrier (siRNA; listed as Anti-CD20 mAB conjugated to SMCC-protamine),siRNA bound per mol of antibody carrier (siRNA; listed as rituximab-protamine),SM-1/RF complexed per mol of carrier mAB [2],ibrutinib-Cy3.5 complexed per mol of carrier mAB [3],Molecule,colony formation (HBL-1 cells),day by which all/last mice had to be sacrificed (HBL-1 DLBCL-cells),Microscopic analysis [1]
not with uncharged ibrutinib,–,–,–,–,–,"C=CC(=O)N1CCC[C@@H](n2nc(-c3ccc(Oc4ccccc4)cc3)c3c(N)ncnc32)C1 [ibrutinib, 1-[(3R)-3-[4-amino-3-(4-phenoxyphenyl)pyrazolo[3,4-d]pyrimidin-1-yl]piperidin-1-yl]prop-2-en-1-one]",much lesser degree,20 days,–
–,8 mol,around 16 mol,about 8 mol,> 32 mol,> 32 mol,"CD20-mAB rituximab-protamine/P conjugates: anti-CD20 antibody rituximab conjugated via sulfo-SMCC to protamine, containing free SMCC-protamine",–,–,No visible
–,–,–,–,–,–,rituximab: anti-CD20 antibody,only a mild effect on colony growth,≤ 16 days,–
